Experimental data taken from patent US6548270B1, “DNA encoding human acid-sensing ion channel BNaC4 (ASIC4)” (Ortho-McNeil Pharmaceutical, Inc., priority 2000, dated 2003).

Tests used:
hASIC3 = biological target: T1, hASIC3 (Homo sapiens, UniProt Q9UHC3); conditions: 100 μM amiloride, Seguela and Babinski, 1999; cited from earlier work
T1 sequence (Q9UHC3 1-531): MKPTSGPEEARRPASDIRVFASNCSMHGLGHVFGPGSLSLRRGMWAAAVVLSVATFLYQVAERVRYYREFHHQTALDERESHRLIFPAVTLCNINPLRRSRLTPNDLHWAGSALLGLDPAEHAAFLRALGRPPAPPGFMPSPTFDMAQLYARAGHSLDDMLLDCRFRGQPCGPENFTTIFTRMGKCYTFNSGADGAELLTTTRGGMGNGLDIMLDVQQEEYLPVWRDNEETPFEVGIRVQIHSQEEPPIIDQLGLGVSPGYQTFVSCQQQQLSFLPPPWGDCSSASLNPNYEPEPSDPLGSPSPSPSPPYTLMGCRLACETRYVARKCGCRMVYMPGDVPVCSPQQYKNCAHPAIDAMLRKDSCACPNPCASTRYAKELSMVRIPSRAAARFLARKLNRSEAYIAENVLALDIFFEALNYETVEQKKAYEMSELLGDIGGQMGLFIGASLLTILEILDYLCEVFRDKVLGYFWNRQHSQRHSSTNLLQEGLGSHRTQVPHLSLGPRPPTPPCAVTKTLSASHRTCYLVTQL

human BNaC4 = biological target: T2, human BNaC4 (Homo sapiens, UniProt Q96FT7); assay: pH 4.5-elicited current in HEK293 cells transiently expressing human BNaC4 (whole cell patch clamp); assay type: cell-based; set-up: achieved by transfection of full-length human BNaC4 cDNA into a mammalian host cell; expressed in transfected cells; host or cells: HEK293, transient co-transfection of phBNaC4 (pCI Neo) and pEGFP; conditions: 500 uM amiloride; HEK293 cells transfected with hBNaC4; n=3
T2 sequence (Q96FT7 1-539): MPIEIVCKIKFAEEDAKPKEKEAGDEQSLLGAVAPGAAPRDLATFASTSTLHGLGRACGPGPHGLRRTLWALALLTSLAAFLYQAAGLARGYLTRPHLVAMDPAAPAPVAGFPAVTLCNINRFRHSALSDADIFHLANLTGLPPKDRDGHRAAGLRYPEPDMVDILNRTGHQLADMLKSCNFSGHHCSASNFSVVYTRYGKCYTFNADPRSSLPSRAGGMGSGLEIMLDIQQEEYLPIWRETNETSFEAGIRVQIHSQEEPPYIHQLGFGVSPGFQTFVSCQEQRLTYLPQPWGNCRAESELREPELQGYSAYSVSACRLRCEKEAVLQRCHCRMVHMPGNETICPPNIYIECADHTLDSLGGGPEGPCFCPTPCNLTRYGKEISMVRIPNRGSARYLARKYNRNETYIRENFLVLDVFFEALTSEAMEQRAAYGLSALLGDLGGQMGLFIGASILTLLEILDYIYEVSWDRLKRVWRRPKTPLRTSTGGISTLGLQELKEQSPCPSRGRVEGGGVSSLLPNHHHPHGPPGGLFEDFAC
Description: Human HEK293 cells were transfected with human BNaC4 (phBNaC4) together with the pEGFP vector (Clontech). Transient transfections 2 μg of phBNAC4 together with 1 μg pEGFP per 10^6 cells per 100 mm dish are performed using the Effectene transfection kit (Quiagen; 301425). Two to three days after transfection, cells are plated onto 12 mm round coverslips and maintained in growth media overnight. After one day, wells were tested for their whole cell response to application of low pH from nearby puffer pipettes using whole cell voltage clamp. Cells expressing GFP were tested (GFP-positive cells). Transfections with vector alone with GFP were used as controls (GFP-positive). […] The standard physiological saline (“Tyrodes”) contained: 130 mM NaCl, 4 mM KCl, 1 mM CaCl2, 1.2 mM MgCl2, and 10 mM hemi-Na-HEPES (pH 7.3, 295-300 mOsm as measured using a Wescor 5500 vapor-pressure (Wescor, Inc., Logan, Utah). Recording electrodes were fabricated from borosilicate capillary tubing (R6; Garner Glass, Claremont, Calif.), the tips are coated with dental periphery wax (Miles Laboratories, South Bend, Ind.), and have resistances of 1-2 MΩ when containing intracellular saline: 100 mM K-gluconate, 25 mM KCl, 0.483 mM CaCl2, 3 mM MgCl2, 10 mM hemi-Na-HEPES and 1 mM K4-BAPTA (100 nM free Ca^+2); pH 7.4, with dextrose added to achieve 290 mOsm). […]

N=C(N)NC(=O)c1nc(Cl)c(N)nc1N [amiloride]
decrease of sustained current (hASIC3): sustained current by ˜30%; fast
block of the pH 4.5 effect (current elicited by pH 4.5) (human BNaC4): 98+/−2%
